Tests used:
Test in all cases: CellTiter-Glo cell proliferation
Format in all cases: cell-based
T84 = conditions: CTG, 72 hours
Experimental: (§1) The effect of the present invention compound ZZY-003 on the cell proliferation of 50 cell lines was evaluated by CellTiter-Glo (CTG) method, and the 50% inhibitory concentration was calculated by detecting the cell viability after treatment with different drug concentrations. The cells were resuscitated and cultured in their respective culture media. The cells in logarithmic growth phase were harvested and the cells were counted by cell counter. The cell viability was detected by Trypan blue exclusion method to ensure that the cell line viability was more than 96%. The cell concentration was adjusted by diluting with the culture medium, and 90 μL cell suspension was added to the 96-well cell plate (including the cell control T0 on the day of drug treatment) to make the cell density reach the specified concentration. The cells in the 96-well plate were cultured overnight at 37° C., 5% CO2 and 95% humidity. 10 μL culture medium was added to the control cell culture plate. CellTiter-Glo reagent and cell culture plate were placed at room temperature to balance for 30 minutes. The same volume of CellTiter-Glo reagent was added to each well. Vibrate on the orbital shaker for 2 min to make the cells fully lytic. The cell culture plate was placed at room temperature to balance for 10 minutes. Chemiluminescence values were read with EnVision. The storage solution was formed by dissolving the tested compound with the corresponding solvent and diluted in gradient to obtain 10 times working concentration solution, and 10 times solution of positive drug was also prepared. 10 μL drug solution was added to each well in the 96-well plate in which the cells were inoculated, and each cell concentration was provided with three duplicate wells. The highest concentration of the tested compound was 10/50 μM, 9 concentrations and 3.16 times dilution. The cells in the 96-well plate added with drug were cultured at 37° C., 5% CO2 and 95% humidity for 72 hours. CellTiter-Glo reagent and drug-treated cell culture plate were placed at room temperature to balance for 30 minutes. The same volume of CellTiter-Glo reagent was added to each well. Vibrate on the orbital shaker for 2 minutes to make the cells fully lytic. The cell culture plate was placed at room temperature to balance for 10 minutes. Chemiluminescence values were read with EnVision. Data processing: […] Cell survival rate (%)=(Lum drug to be detected−Lum culture medium control)/(Lum cell control−Lum culture medium control)×100%; Lum cell control−Lum culture medium control was set to 100%, LumMedium control value was set to 0%;

SW480 = conditions: CTG, 72 hours
Experimental: as §1

Ramos = conditions: CTG, 72 hours
Experimental: as §1

Jurkat clone E6-1 = conditions: CTG, 72 hours
Experimental: as §1

HL-60 = conditions: CTG, 72 hours
Experimental: as §1

OPM2 = conditions: 72 hours
Experimental: as §1

SNU-5 = conditions: CTG, 72 hours
Experimental: as §1

PC-3 = conditions: CTG, 72 hours
Experimental: as §1

LP-1 = conditions: CTG, 72 hours
Experimental: as §1

U-937 = conditions: CTG, 72 hours
Experimental: as §1

UO.31 = conditions: CTG, 72 hours
Experimental: as §1

MDA-MB-453 = conditions: CTG, 72 hours
Experimental: as §1

SNU-761 = conditions: CTG, 72 hours
Experimental: as §1

AMO-1 = conditions: 72 hours
Experimental: as §1

NCI-H82 = conditions: CTG, 72 hours
Experimental: as §1

HeLa = conditions: CTG, 72 hours
Experimental: as §1

EBC-1 = conditions: CTG, 72 hours
Experimental: as §1

AN3 CA = conditions: CTG, 72 hours
Experimental: as §1

BT474 = conditions: 72 hours
Experimental: as §1

SK-MEL-28 = conditions: CTG, 72 hours
Experimental: as §1

SK-N-FI = conditions: CTG, 72 hours
Experimental: as §1

HT-1376 = conditions: CTG, 72 hours
Experimental: as §1

5637 = conditions: CTG, 72 hours
Experimental: as §1

AZ-521 = conditions: CTG, 72 hours
Experimental: as §1

MOLM-13 = conditions: CTG, 72 hours
Experimental: as §1

MIA PaCa-2 = conditions: CTG, 72 hours
Experimental: as §1

SK-OV-3 = conditions: CTG, 72 hours
Experimental: as §1

CNE-2Z = conditions: CTG, 72 hours
Experimental: as §1

U266B1 = conditions: CTG, 72 hours
Experimental: as §1

[1] = Homo sapiens, read-out: Absolute IC50
[2] = CTG, highest concentration 10/50 μM

- IC50 (SW480; [1]): 1.74 µM
- IC50 (Ramos; [1]): 0.32 µM
- IC50 (Jurkat clone E6-1; [1]): 0.48 µM
- IC50 (HL-60; [1]): 0.31 µM
- IC50 (SNU-5; [1]): 1.64 µM
- IC50 (PC-3; [1]): 1.38 µM
- IC50 (U-937; [1]): 0.46 µM
- IC50 (MDA-MB-453; [1]): 0.19 µM
- IC50 (SNU-761; read-out: Absolute IC50): 9.32 µM
- IC50 (NCI-H82; [1]): 0.37 µM
- IC50 (HeLa; [1]): 1.4 µM
- IC50 (BT474; Homo sapiens, BT-474, CTG, read-out: Absolute IC50): 0.51 µM
- IC50 (SK-MEL-28; [1]): 1.24 µM
- IC50 (SK-N-FI; [1]): 3.17 µM
- IC50 (HT-1376; [1]): 2.28 µM
- IC50 (MOLM-13; [1]): 0.21 µM
- IC50 (MIA PaCa-2; [1]): 0.48 µM
- IC50 (SK-OV-3; [1]): 1.59 µM
- IC50 (U266B1; read-out: Absolute IC50): 0.64 µM
SMILES: Cc1ccc(C(=O)Nc2cc(N3CCNCC3)ccc2-c2ccc(/C=C/C(=O)NO)cc2C)cc1.Cl [ZZY-003]
- % inhibition at top conc. (T84; highest concentration 10/50 μM): 98.70%
- IC50 (T84; [1]): 9.95 µM
- % inhibition at top conc. (SW480; highest concentration 10/50 μM): 99.24%
- % inhibition at top conc. (Ramos; highest concentration 10/50 μM): 99.82%
- % inhibition at top conc. (Jurkat clone E6-1; highest concentration 10/50 μM): 99.61%
- % inhibition at top conc. (HL-60; highest concentration 10/50 μM): 99.93%
- % inhibition at top conc. (OPM2; [2]): 98.99%
- IC50 (OPM2; Homo sapiens, OPM-2, CTG, read-out: Absolute IC50): 0.35 µM
- % inhibition at top conc. (SNU-5; highest concentration 10/50 μM): 99.83%
- % inhibition at top conc. (PC-3; highest concentration 10/50 μM): 96.56%
- % inhibition at top conc. (LP-1; highest concentration 10/50 μM): 98.94%
- IC50 (LP-1; [1]): 0.26 µM
- % inhibition at top conc. (U-937; highest concentration 10/50 μM): 99.99%
- % inhibition at top conc. (UO.31; highest concentration 10/50 μM): 99.92%
- IC50 (UO.31; [1]): 4.56 µM
- % inhibition at top conc. (MDA-MB-453; highest concentration 10/50 μM): 99.93%
- % inhibition at top conc. (SNU-761; highest concentration 10/50 μM): 99.35%
- % inhibition at top conc. (AMO-1; [2]): 99.95%
- IC50 (AMO-1; Homo sapiens, AMO1, CTG, read-out: Absolute IC50): 1.52 µM
- % inhibition at top conc. (NCI-H82; highest concentration 10/50 μM): 99.94%
- % inhibition at top conc. (HeLa; highest concentration 10/50 μM): 98.88%
- % inhibition at top conc. (EBC-1; highest concentration 10/50 μM): 92.30%
- IC50 (EBC-1; [1]): 1.15 µM
- % inhibition at top conc. (AN3 CA; highest concentration 10/50 μM): 99.92%
- IC50 (AN3 CA; [1]): 1.27 µM
- % inhibition at top conc. (BT474; [2]): 99.86%
- % inhibition at top conc. (SK-MEL-28; highest concentration 10/50 μM): 99.89%
- % inhibition at top conc. (SK-N-FI; highest concentration 10/50 μM): 99.95%
- % inhibition at top conc. (HT-1376; highest concentration 10/50 μM): 99.41%
- % inhibition at top conc. (5637; highest concentration 10/50 μM): 99.95%
- IC50 (5637; read-out: Absolute IC50): 0.82 µM
- % inhibition at top conc. (AZ-521; highest concentration 10/50 μM): 99.95%
- IC50 (AZ-521; [1]): 0.68 µM
- % inhibition at top conc. (MOLM-13; highest concentration 10/50 μM): 99.99%
- % inhibition at top conc. (MIA PaCa-2; highest concentration 10/50 μM): 99.94%
- % inhibition at top conc. (SK-OV-3; highest concentration 10/50 μM): 99.68%
- % inhibition at top conc. (CNE-2Z; highest concentration 10/50 μM): 99.84%
- IC50 (CNE-2Z; Homo sapiens, CNE2Z, read-out: Absolute IC50): 1.52 µM
- % inhibition at top conc. (U266B1; highest concentration 10/50 μM): 98.03%
